What was measured:
[1] = test system: MALME-3M human melanoma cells; assay: Polyamine pools in MALME-3M cells; assay type: cell-based; settings: MALME-3M (wt-p53), 10 μM, Table 2 (24 hours treatment)
Description: (§1) MALME-3M human melanoma cells were cultured as described in Example 1 and treated with 10 μM DENSPM or 10 μM spermine (SPM) as described in Example 4. SK-MEL-28 cells were also cultured as described in Example 1 and treated with 10 μM DENSPM as describe in Example 4. Untreated cells were used as a control.
(§2) After treatment with DENSPM or spermine, biochemical parameters including polyamine enzymes activity, polyamine pools and analog accumulation were monitored as described by Kramer et al, J. Biol. Chem., 270:2124-32 (1995) and Kramer et al., Cancer Res., 57:5521-5527 (1997). Polyamine enzyme activity was monitored for ornithine […] (ODC); S-adenosylmethionine decarboxylase (SAMDC); and spermidine/spermine N^1-acetyltransferase (SSAT). Polyamine pools was monitored for putrescine (Put); spermidine (Spd); and spermine (Spm).

[2] = test system: SK-MEL-28 human melanoma cells; assay: Polyamine pools and analog accumulation in SK-MEL-28 cells; assay type: cell-based
Description: as §1, §2
(§3) Enzyme activity and polyamine pools were measured as described in Example 5.

[3] = test system: spermidine/spermine N^1-acetyltransferase (SSAT); assay: Polyamine enzyme activity in treated melanoma cells: SSAT induction; assay type: cell-based, human; settings: SK-MEL-28 cells, 24 hours
Description: as §1, §2, §3

[4] = test system: cell cycle regulatory proteins, including p53, p21, p27, ppRb, pRb, cyclin D1 and PCNA; assay: Western blot of cell cycle regulatory proteins in MALME-3M cells; assay type: cell-based, human; settings: 10 μM
Description: (§4) MALME-3M and SK-MEL-28 cells cultured as described in Example 4 were treated with 10 μM DENSPM for 0 to 48 hours. Western blot analysis of cell cycle regulatory proteins, including p53, p21, p27, ppRb, pRb, cyclin D1 and PCNA was performed following the procedure described by Fogel-Petrovic et al. in Molec. Pharm, 52:69-74 (1997); and Biochemistry, 35:14436-14444 (1996). Antibodies used for detecting the proteins were obtained commercially as follows: p53 from Santa Cruz Biotechnology, Inc. (Santa Cruz, Calif.); PCNA and Cyclin D1 from Oncogene Research Products (Cambridge, Mass.); Rb and p21 from PharMigen (San Diego, Calif.); p27 from Transduction labs (Lexington, Ky.) and β-actin (used to correct for variations in loading) from Sigma Chemical Co. (St. Louis, Mo.). Western blot analysis of each of these proteins was performed at least three times.

[5] = test system: SK-MEL-28 human melanoma cells; assay: Cell growth / apoptotic response of SK-MEL-28 cells (Coulter Counter, growth kinetics); assay type: cell-based; settings: SK-MEL-28 (mt-p53), 10 μM, 48 hours
[6] = test system: ornithine decarboxylate (ODC); assay: Polyamine enzyme activity in treated melanoma cells: ODC; assay type: cell-based, human; settings: for ODC activity: 10 μM
Description: as §1, §2, §3

[7] = test system: MALME-3M human melanoma cells; assay: Cell growth of MALME-3M cells (Coulter Counter); assay type: cell-based; settings: 10 μM
Description: MALME-3M human melanoma cells containing wt-p53 (American Tissue Type Culture Collection, Bethesda, Md.) and human SK-MEL-28 cells containing mt-p53 (American Tissue Type Culture Collection, Bethesda, Md.) were cultured as a monolayer in RPMI 1640 medium containing 10% Nu-Serum (Collaborative Research Products, Bedford, Mass.), 1 mM aminoguanidine, penicillin (50 units/ml) and streptomycin (50 μg/ml) as described by Kramer et al, J. Biol. Chem., 270:2124-32 (1995) and Kramer et al., Cancer Res., 57:5521-5527 (1997).
MALME-3M cells were cultured as described in Example 1. The cells were seeded by adding 1×10^5 cells to a T-25 vented cell culture flask. After 24 hours, the asynchronous cell cultures were treated with 10 μM N^1, N^11-diethylnorspermine (DENSPM) prepared by dissolving DENSPM in distilled water and sterilizing the solution by filtration through a 0.22 micron Millipore membrane. The cells were treated by continuous exposure to DENSPM for 6 days (i.e., the polyamine was added to the cell culture at T=0 and the culture was incubated for the desired amount of time). The number of viable MALME-3M cells were monitored electronically using a Model ZM Coulter Counter (Coulter Electronics, Hialeah, Fla.). Untreated MALME-3M cell cultures were used as controls.
MALME-3M human melanoma cells were cultured as described in Example 1 and treated continuously with 10 μM DENSPM or 10 μM spermine (SPM) for 48 hours. SK-MEL-28 cells were also cultured as described in Example 1 and treated with 10 μM DENSPM for 24 hours. Untreated cells were used as a control.
The effect of DENSPM and spermine on cell growth was monitored using a Coulter Counter (see Example 2). The effect on cell cycle was monitored by flow cytometry as described in Example 3.

[8] = test system: cell cycle regulatory proteins (p53, p21, p16, p27); assay: Western blot of cell cycle regulatory proteins in SK-MEL-28 cells; assay type: cell-based, human; settings: SK-MEL-28, 10 μM
Description: as §4
The effects of 10 μM DENSPM on MALME-3M and SK-MEL-28 cell growth and cell cycle regulatory proteins were determined as described in Examples 2 and 3, respectively. Panel A is a comparison of the effects of DENSPM on cell growth. Panel B is a comparison of cell cycle regulatory proteins. […] In contrast, p16 was not detectable in MALME-3M cells. Data is representative of at least two experiments.

[9] = SK-MEL-28 (mt-p53), 10 μM, Table 2, 24 hours
[10] = SK-MEL-28 cells, 24 hours, Table 4
[11] = MALME-3M (wt-p53), Table 2 (24 hours treatment)

Q: `CCNCCCNCCCNCCCNCC` [DENSPM, N^1,N^11-diethylnorspermine] was tested. Which “Polyamine Pools, Put” value [1] did it give?
A: 205 pmol/10^6 cells

Q: What about the “Polyamine Pools, Spd” value [1] of the same compound?
A: 60 pmol/10^6 cells

Q: And the “Polyamine Pools, Spm” value [1]?
A: 285 pmol/10^6 cells

Q: What about the “Polyamine Pools, Put” value [2, 9] of the same compound?
A: 70 pmol/10^6 cells

Q: And the “Polyamine Pools, Spd” value [2, 9]?
A: 20 pmol/10^6 cells

Q: What about the “Polyamine Pools, Spm” value [2, 9] of the same compound?
A: 105 pmol/10^6 cells

Q: What about the “decrease in spermine pools” value ([2]; SK-MEL-28 cells, 24 hours) of the same compound?
A: 95%

Q: What about the “Analog (intracellular accumulation)” value [2, 10] of the same compound?
A: 7710 pmol/10^6 cells

Q: And the “Polyamine Pools, Put” value [2, 10]?
A: 115 pmol/10^6 cells

Q: What about the “Polyamine Pools, Spd” value [2, 10] of the same compound?
A: 45 pmol/10^6 cells

Q: And the “Polyamine Pools, Spm” value [2, 10]?
A: 190 pmol/10^6 cells

Q: What about the “SSAT activity” value [3] of the same compound?
A: 31,920 pmol/min/mg

Q: And the “Enzyme Activities, SSAT” value ([3]; Table 4)?
A: 31920 pmol/min/mg protein

Q: What about the “appearance of the hypophosphorylated Rb (pRb) protein band” value [4] of the same compound?
A: about 16 hours

Q: And the “start of increase in p21” value [4]?
A: about 12 hours

Q: And the “start of increase in wild type p53” value [4]?
A: about 12 hours

Q: And the “time of p21 maximum” value [4]?
A: 30 h

Q: What about the “time of p53 maximum” value [4] of the same compound?
A: 30 h

Q: And the “protein levels of PCNA” value ([4]; 0 to 48 hours)?
A: unaffected

Q: And the “p21 protein increase relative to zero treatment time (densitometry, normalized to β-actin)” value ([4]; 30 hour peak)?
A: 5 fold

Q: What about the “p53 protein increase relative to zero treatment time (densitometry, normalized to β-actin)” value ([4]; 30 hour peak) of the same compound?
A: 10 fold

Q: What about the “levels of p130, cyclin D1 and cyclin E” value ([4]; 48 hour time course (data not shown)) of the same compound?
A: relatively constant

Q: What about the “Rb phosphorylation state by 48 hours” value ([4]; 48 hours) of the same compound?
A: pRb was the only species

Q: What about the p27 maximum induction ([4]; at 24 to 30 hours) of the same compound?
A: about 1.5 fold

Q: What about the “% Control Growth” value [5] of the same compound?
A: 0%

Q: What about the ODC activity [6, 11] of the same compound?
A: 30 pmol/hr/mg protein

Q: What about the ODC activity ([6]; SK-MEL-28 (mt-p53), Table 2, 24 hours) of the same compound?
A: 5 pmol/hr/mg protein

Q: And the “Enzyme Activities, ODC” value [6, 10]?
A: 37 pmol/hr/mg protein

Q: What about the “% Control Growth” value ([7]; MALME-3M (wt-p53), 48 hours) of the same compound?
A: 54%

Q: What about the “% Growth Control” value [7, 11] of the same compound?
A: 83%

Q: And the “time course of viable cell number” value ([7]; MALME-3M, asynchronous, continuous exposure 6 days)?
A: steady growth for the first 24 hours, then a plateau and then began to decline in number from 48 hours onwards

Q: What about the “cdk inhibitors p16 and p27” value [8] of the same compound?
A: not increased

Q: What about the “p21 protein induction with treatment” value [8] of the same compound?
A: not induced

Q: What about the “induction of p53” value ([8]; 24 hours) of the same compound?
A: no induction
